From PubChem BioAssay (NCI)
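How tested: cells in 96-well plates exposed to compound for 48 hours at five concentrations. Here, GI50 denotes the concentration required for 50% inhibition of growth. The concentration for full growth arrest is given as TGI.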

Legend:
Experiment in all cases: DTP human tumour cell line panel, 48 h
U251 CNS = tested on: U251 CNS
SR leukemia = tested on: SR leukemia
UACC-257 melanoma = tested on: UACC-257 melanoma
CCRF-CEM leukemia = tested on: CCRF-CEM leukemia
CAKI-1 renal = tested on: CAKI-1 renal
DU-145 prostate = tested on: DU-145 prostate
OVCAR-8 ovarian = tested on: OVCAR-8 ovarian
SNB-75 CNS = tested on: SNB-75 CNS
MOLT-4 leukemia = tested on: MOLT-4 leukemia
SK-MEL-5 melanoma = tested on: SK-MEL-5 melanoma
T-47D breast = tested on: T-47D breast
EKVX NSCLC = tested on: EKVX NSCLC
SW-620 colon = tested on: SW-620 colon
OVCAR-5 ovarian = tested on: OVCAR-5 ovarian
BT-549 breast = tested on: BT-549 breast
RPMI-8226 leukemia = tested on: RPMI-8226 leukemia
PC-3 prostate = tested on: PC-3 prostate
786-0 renal = tested on: 786-0 renal
NCI-H226 lung = tested on: NCI-H226 lung
SK-OV-3 ovarian = tested on: SK-OV-3 ovarian
ACHN renal = tested on: ACHN renal
OVCAR-4 ovarian = tested on: OVCAR-4 ovarian
SN12C renal = tested on: SN12C renal
LOX IMVI melanoma = tested on: LOX IMVI melanoma
HT29 colon = tested on: HT29 colon
SK-MEL-28 melanoma = tested on: SK-MEL-28 melanoma
SF-295 CNS = tested on: SF-295 CNS
TK-10 renal = tested on: TK-10 renal
KM12 colon = tested on: KM12 colon
UACC-62 melanoma = tested on: UACC-62 melanoma
MCF7 breast = tested on: MCF7 breast
A549 NSCLC = tested on: A549 NSCLC
NCI-H522 lung = tested on: NCI-H522 lung
HL-60(TB) leukemia = tested on: HL-60(TB) leukemia
COLO 205 colon = tested on: COLO 205 colon
SF-539 CNS = tested on: SF-539 CNS
HCT-116 colon = tested on: HCT-116 colon
HOP-92 NSCLC = tested on: HOP-92 NSCLC
MALME-3M melanoma = tested on: MALME-3M melanoma
HCC-2998 colon = tested on: HCC-2998 colon
A498 renal = tested on: A498 renal
RXF 393 renal = tested on: RXF 393 renal
NCI-H460 lung = tested on: NCI-H460 lung
IGROV1 ovarian = tested on: IGROV1 ovarian
OVCAR-3 ovarian = tested on: OVCAR-3 ovarian
HOP-62 NSCLC = tested on: HOP-62 NSCLC
K-562 leukemia = tested on: K-562 leukemia
SNB-19 CNS = tested on: SNB-19 CNS
NCI-H23 lung = tested on: NCI-H23 lung
SF-268 CNS = tested on: SF-268 CNS
UO-31 renal = tested on: UO-31 renal
SK-MEL-2 melanoma = tested on: SK-MEL-2 melanoma
HS 578T breast = tested on: HS 578T breast
HCT-15 colon = tested on: HCT-15 colon
MDA-MB-231 breast = tested on: MDA-MB-231 breast
MDA-MB-435 = tested on: MDA-MB-435
M14 melanoma = tested on: M14 melanoma

## CC(c1ccccc1)N1C(=O)CSC1=S (stereo not drawn)
U251 CNS
  GI50: 0.4 µM
  TGI: 16.5 µM
SR leukemia
  GI50: 0.109 µM
  TGI: > 100 µM
UACC-257 melanoma
  GI50: 3.22 µM
  TGI: 33.8 µM
CCRF-CEM leukemia
  GI50: 0.941 µM
  TGI: > 100 µM
CAKI-1 renal
  GI50: 1.33 µM
DU-145 prostate
  GI50: 0.379 µM
  TGI: 3.66 µM
OVCAR-8 ovarian
  GI50: 2 µM
  TGI: > 100 µM
SNB-75 CNS
  GI50: 2.89 µM
  TGI: > 22.2 µM
MOLT-4 leukemia
  GI50: 1.75 µM
  TGI: > 100 µM
SK-MEL-5 melanoma
  GI50: 1.86 µM
  TGI: 9.83 µM
T-47D breast
  GI50: 4.1 µM
  TGI: 70.6 µM
EKVX NSCLC
  GI50: 7.57 µM
  TGI: > 100 µM
SW-620 colon
  GI50: 0.418 µM
  TGI: > 38.5 µM
OVCAR-5 ovarian
  GI50: 4.05 µM
  TGI: 49.4 µM
BT-549 breast
  GI50: 2.46 µM
  TGI: 36 µM
RPMI-8226 leukemia
  GI50: 0.382 µM
  TGI: 34.2 µM
PC-3 prostate
  GI50: 0.989 µM
  TGI: > 100 µM
786-0 renal
  GI50: 0.628 µM
  TGI: > 100 µM
NCI-H226 lung
  GI50: 3.56 µM
  TGI: > 100 µM
SK-OV-3 ovarian
  GI50: 2.39 µM
  TGI: > 81.8 µM
ACHN renal
  GI50: 3.61 µM
  TGI: > 100 µM
OVCAR-4 ovarian
  GI50: 1.36 µM
  TGI: > 100 µM
SN12C renal
  GI50: 0.701 µM
  TGI: > 100 µM
LOX IMVI melanoma
  GI50: 0.446 µM
  TGI: 19.5 µM
HT29 colon
  GI50: 0.362 µM
SK-MEL-28 melanoma
  GI50: 3.52 µM
  TGI: 54.1 µM
SF-295 CNS
  GI50: 2.86 µM
TK-10 renal
  GI50: 8.78 µM
  TGI: > 93.3 µM
KM12 colon
  GI50: 0.0495 µM
  TGI: 0.438 µM
UACC-62 melanoma
  GI50: 0.33 µM
  TGI: 10.7 µM
MCF7 breast
  GI50: 0.0583 µM
  TGI: 13.7 µM
A549 NSCLC
  GI50: 4.67 µM
  TGI: > 59.1 µM
NCI-H522 lung
  GI50: 0.114 µM
  TGI: 3.81 µM
HL-60(TB) leukemia
  GI50: 0.14 µM
  TGI: 1.45 µM
COLO 205 colon
  GI50: 0.3 µM
  TGI: 1.08 µM
SF-539 CNS
  GI50: 0.228 µM
HCT-116 colon
  GI50: 0.137 µM
  TGI: 1.38 µM
HOP-92 NSCLC
  GI50: 4.29 µM
  TGI: > 100 µM
MALME-3M melanoma
  GI50: 7.39 µM
  TGI: > 100 µM
HCC-2998 colon
  GI50: 3.08 µM
  TGI: 8.86 µM
A498 renal
  GI50: 7.32 µM
  TGI: 55.3 µM
RXF 393 renal
  GI50: 0.747 µM
  TGI: 6.27 µM
NCI-H460 lung
  GI50: 0.97 µM
IGROV1 ovarian
  GI50: 0.129 µM
  TGI: 0.697 µM
OVCAR-3 ovarian
  GI50: 0.232 µM
  TGI: 1.23 µM
HOP-62 NSCLC
  GI50: 0.526 µM
  TGI: 14.4 µM
K-562 leukemia
  GI50: 0.346 µM
  TGI: > 100 µM
SNB-19 CNS
  GI50: 0.302 µM
  TGI: 1.1 µM
NCI-H23 lung
  GI50: 6.82 µM
  TGI: > 46 µM
SF-268 CNS
  GI50: 1.01 µM
  TGI: 45.7 µM
UO-31 renal
  GI50: 5.73 µM
  TGI: > 83.5 µM
SK-MEL-2 melanoma
  GI50: 0.604 µM
  TGI: 12.4 µM
HS 578T breast
  GI50: 0.779 µM
HCT-15 colon
  GI50: 0.659 µM
  TGI: > 100 µM
MDA-MB-231 breast
  GI50: 0.463 µM
  TGI: > 23.8 µM
MDA-MB-435
  GI50: 0.319 µM
  TGI: 7.21 µM
M14 melanoma
  GI50: 0.332 µM
  TGI: 2.99 µM
